Measurements published in ChEMBL document CHEMBL5150066, “Synthesis of estrone selenocyanate Compounds, anti-tumor activity evaluation and Structure-activity relationship analysis” (Bioorg Med Chem, 2022).

How the values were obtained:
[1] = tested on: MCF7; assay: Antiproliferative activity against human MCF7 cells assessed as inhibition of cell growth incubated for 72 hrs by MTT assay; type: functional, cell-based; conditions: MCF7, 72 h
[2] = tested on: SK-OV-3; assay: Antiproliferative activity against human SK-OV-3 cells assessed as inhibition of cell growth incubated for 72 hrs by MTT assay; type: functional, cell-based; conditions: SK-OV-3, 72 h
[3] = tested on: HeLa; assay: Antiproliferative activity against human HeLa cells assessed as inhibition of cell growth incubated for 72 hrs by MTT assay; type: functional, cell-based
[4] = tested on: T47D; assay: Antiproliferative activity against human T47D cells assessed as inhibition of cell growth incubated for 72 hrs by MTT assay; type: functional, cell-based
[5] = tested on: HepG2; assay: Antiproliferative activity against human HepG2 cells assessed as inhibition of cell growth incubated for 72 hrs by MTT assay; type: functional, cell-based; conditions: HepG2, 72 h
[6] = Cytotoxicity against HEK293T cells assessed as inhibition of cell growth incubated for 72 hrs by MTT assay; type: toxicity, cell-based, HEK-293T; conditions: human
[7] = tested on: SK-OV-3; assay: Induction of apoptosis in human SK-OV-3 cells assessed as late apoptotic cells at 20 umol/L incubated for 24 hrs by Annexin V-FITC/PI staining based flow cytometric analysis (reference value: 5.51 %); type: functional; conditions: dose 20 µmol/L, at 20 µM
[8] = tested on: SK-OV-3; assay: Induction of apoptosis in human SK-OV-3 cells assessed as early apoptotic cells at 20 umol/L incubated for 24 hrs by Annexin V-FITC/PI staining based flow cytometric analysis (reference value: 4.66 %); type: functional; conditions: dose 20 µmol/L, at 20 µM
[9] = tested on: SK-OV-3; assay: Induction of apoptosis in human SK-OV-3 cells assessed as late apoptotic cells at 10 umol/L incubated for 24 hrs by Annexin V-FITC/PI staining based flow cytometric analysis (reference value: 5.51 %); type: functional; conditions: dose 10 µmol/L, at 10 µM
[10] = tested on: SK-OV-3; assay: Induction of apoptosis in human SK-OV-3 cells assessed as early apoptotic cells at 10 umol/L incubated for 24 hrs by Annexin V-FITC/PI staining based flow cytometric analysis (reference value: 4.66 %); type: functional; conditions: dose 10 µmol/L, at 10 µM
[11] = tested on: SK-OV-3; assay: Induction of apoptosis in human SK-OV-3 cells assessed as necrotic cells at 25 umol/L incubated for 24 hrs by Annexin V-FITC/PI staining based flow cytometric analysis (reference value: 0.00 %); type: functional; conditions: dose 25 µmol/L, at 25 µM
[12] = tested on: SK-OV-3; assay: Induction of apoptosis in human SK-OV-3 cells assessed as late apoptotic cells at 15 umol/L incubated for 24 hrs by Annexin V-FITC/PI staining based flow cytometric analysis (reference value: 5.51 %); type: functional; conditions: dose 15 µmol/L, at 15 µM
[13] = tested on: SK-OV-3; assay: Induction of apoptosis in human SK-OV-3 cells assessed as viable cells at 10 umol/L incubated for 24 hrs by Annexin V-FITC/PI staining based flow cytometric analysis (reference value: 89.83 %); type: functional; conditions: SK-OV-3, 24 h, dose 10 µmol/L, read-out: Activity
[14] = tested on: SK-OV-3; assay: Induction of apoptosis in human SK-OV-3 cells assessed as necrotic cells at 10 umol/L incubated for 24 hrs by Annexin V-FITC/PI staining based flow cytometric analysis (reference value: 0.00 %); type: functional; conditions: dose 10 µmol/L, at 10 µM
[15] = tested on: SK-OV-3; assay: Induction of apoptosis in human SK-OV-3 cells assessed as late apoptotic cells at 25 umol/L incubated for 24 hrs by Annexin V-FITC/PI staining based flow cytometric analysis (reference value: 5.51 %); type: functional; conditions: dose 25 µmol/L, at 25 µM
[16] = tested on: SK-OV-3; assay: Induction of apoptosis in human SK-OV-3 cells assessed as early apoptotic cells at 25 umol/L incubated for 24 hrs by Annexin V-FITC/PI staining based flow cytometric analysis (reference value: 4.66 %); type: functional; conditions: dose 25 µmol/L, at 25 µM
[17] = tested on: SK-OV-3; assay: Induction of apoptosis in human SK-OV-3 cells assessed as early apoptotic cells at 15 umol/L incubated for 24 hrs by Annexin V-FITC/PI staining based flow cytometric analysis (reference value: 4.66 %); type: functional; conditions: dose 15 µmol/L, at 15 µM
[18] = tested on: SK-OV-3; assay: Induction of apoptosis in human SK-OV-3 cells assessed as viable cells at 20 umol/L incubated for 24 hrs by Annexin V-FITC/PI staining based flow cytometric analysis (reference value: 89.83 %); type: functional; conditions: SK-OV-3, 24 h, dose 20 µmol/L, read-out: Activity
[19] = tested on: SK-OV-3; assay: Induction of apoptosis in human SK-OV-3 cells assessed as early apoptotic cells at 5 umol/L incubated for 24 hrs by Annexin V-FITC/PI staining based flow cytometric analysis (reference value: 4.66 %); type: functional; conditions: dose 5 µmol/L, at 5 µM
[20] = tested on: SK-OV-3; assay: Induction of apoptosis in human SK-OV-3 cells assessed as viable cells at 25 umol/L incubated for 24 hrs by Annexin V-FITC/PI staining based flow cytometric analysis (reference value: 89.83 %); type: functional; conditions: SK-OV-3, 24 h, dose 25 µmol/L, read-out: Activity
[21] = tested on: SK-OV-3; assay: Induction of apoptosis in human SK-OV-3 cells assessed as late apoptotic cells at 5 umol/L incubated for 24 hrs by Annexin V-FITC/PI staining based flow cytometric analysis (reference value: 5.51 %); type: functional; conditions: dose 5 µmol/L, at 5 µM
[22] = tested on: SK-OV-3; assay: Induction of apoptosis in human SK-OV-3 cells assessed as necrotic cells at 20 umol/L incubated for 24 hrs by Annexin V-FITC/PI staining based flow cytometric analysis (reference value: 0.00 %); type: functional; conditions: dose 20 µmol/L, at 20 µM
[23] = tested on: SK-OV-3; assay: Induction of apoptosis in human SK-OV-3 cells assessed as necrotic cells at 5 umol/L incubated for 24 hrs by Annexin V-FITC/PI staining based flow cytometric analysis (reference value: 0.00 %); type: functional; conditions: dose 5 µmol/L, at 5 µM
[24] = tested on: SK-OV-3; assay: Induction of apoptosis in human SK-OV-3 cells assessed as viable cells at 5 umol/L incubated for 24 hrs by Annexin V-FITC/PI staining based flow cytometric analysis (reference value: 89.83 %); type: functional; conditions: SK-OV-3, 24 h, dose 5 µmol/L, read-out: Activity
[25] = tested on: SK-OV-3; assay: Induction of apoptosis in human SK-OV-3 cells assessed as viable cells at 15 umol/L incubated for 24 hrs by Annexin V-FITC/PI staining based flow cytometric analysis (reference value: 89.83 %); type: functional; conditions: SK-OV-3, 24 h, dose 15 µmol/L, read-out: Activity
[26] = tested on: SK-OV-3; assay: Induction of apoptosis in human SK-OV-3 cells assessed as necrotic cells at 15 umol/L incubated for 24 hrs by Annexin V-FITC/PI staining based flow cytometric analysis (reference value: 0.00 %); type: functional; conditions: dose 15 µmol/L, at 15 µM
[27] = Selectivity index, ratio of IC50 for cytotoxicity against HEK293T cells to IC50 for antiproliferative activity against human HepG2 cells; type: toxicity, cell-based; conditions: HEK293T cells versus HepG2 cells, read-out: Ratio IC50
[28] = Potency index, ratio of test compound IC50 to 2-methoxyestradiol IC50 for cytotoxicity against human HEK293T cells assessed as inhibition of cell growth incubated for 72 hrs by MTT assay; type: toxicity, cell-based, HEK-293T; conditions: read-out: Ratio IC50

SMILES | IC50 [1] [µM] | IC50 [2] [µM] | IC50 [3] [µM] | IC50 [4] [µM] | IC50 [5] [µM] | IC50 at 72 h [6] [µM] | other results
C[C@]12CC[C@@H]3c4ccc(OCCCCCCCC[Se]C#N)cc4CC[C@H]3[C@@H]1CCC2=O | 8 | 20.1 | 5.6 | 59.2 | 42.5 | 8.9 | 
COc1ccc2c(c1)CC[C@@H]1[C@@H]2CC[C@]2(C)C(OC(=O)C[Se]C#N)CC[C@@H]12 (some centres not stated) | 88.3 | 52.4 | 56.8 | 41.5 | 61.1 | 45.2 | 
COc1ccc2c(c1)CC[C@@H]1[C@@H]2CC[C@]2(C)C(OC(=O)c3ccc(C[Se]C#N)cc3)CC[C@@H]12 (some centres not stated) | 55.5 | 56.3 | 47.5 | > 100 | 35.9 | 29.7 | 
C[C@]12CC[C@@H]3c4ccc(OCC[Se]C#N)cc4CC[C@H]3[C@@H]1CCC2=O | 52.3 | 60.3 | 20.2 |  | > 100 | 51.1 | 
COc1ccc2c(c1)CC[C@@H]1[C@@H]2CC[C@]2(C)C(NC(=O)c3ccc(C[Se]C#N)cc3)CC[C@@H]12 (some centres not stated) | 15.8 | 22.4 | 9.6 | 40.8 | 13.8 | 24.6 | 
C[C@]12CC[C@@H]3c4ccc(O)cc4CC[C@H]3[C@@H]1CCC2NC(=O)c1ccc(C[Se]C#N)cc1 (some centres not stated) | 17.2 | 27.7 | 13.7 | 25.1 | 16.1 | 13.4 | 
C[C@]12CC[C@H](O)CC1=CC[C@@H]1[C@@H]2CC[C@]2(C)C(c3cccnc3)=CC[C@@H]12 [ABIRATERONE] | 38.2 | 59.5 | 16.9 | 34.7 | 59.8 | > 100 | 
C[C@]12CC[C@@H]3c4ccc(OCCCCCCCCCCCC[Se]C#N)cc4CC[C@H]3[C@@H]1CCC2=O | 27.5 | 46.6 | 18.2 | 19.7 | > 100 | 16.5 | 
COc1ccc2c(c1)CC[C@@H]1[C@@H]2CC[C@]2(C)/C(=N/OC(=O)c3ccc(C[Se]C#N)cc3)CC[C@@H]12 | 3.9 | 69 | 21 | 24.2 | 80.4 | 23.2 | 
COc1cc2c(cc1O)CC[C@@H]1[C@@H]2CC[C@]2(C)[C@@H](O)CC[C@@H]12 [2-METHOXYESTRADIOL] | > 70 | 16.5 | 8.6 | 25.2 | 2.3 | 4.6 | 
C[C@]12CC[C@@H]3c4cc(N)c(O)cc4CC[C@H]3[C@@H]1CCC2=O | > 70 | > 70 | > 70 | 50.5 | 56.3 | 36.4 | 

Further lines, with some results ahead:

IC50 [1] [µM] | IC50 [2] [µM] | IC50 [3] [µM] | IC50 [4] [µM] | IC50 [5] [µM] | SMILES | IC50 at 72 h [6] [µM] | other results
73.4 | 30.5 | 70.4 | 73.4 | 70.4 | C[C@]12CC[C@@H]3c4ccc(O)cc4CC[C@H]3[C@@H]1CCC2NC(=O)C[Se]C#N (some centres not stated) | 25.4 | 
10.1 | 8.2 | 10.2 | 24.9 | 10.1 | C[C@]12CC[C@@H]3c4cc(NC(=O)CCCCCC[Se]C#N)c(O)cc4CC[C@H]3[C@@H]1CCC2=O | 14.4 | Activity [7]: 58.26%; Activity [8]: 29.04%; Activity [9]: 36.97%; Activity [10]: 32.38%; Activity [11]: 0.33%; Activity [12]: 51.6%; viability at 10 µM [13]: 30.2%; Activity [14]: 0.45%; Activity [15]: 50.48%; Activity [16]: 42.27%; Activity [17]: 31.88%; viability at 20 µM [18]: 12.5%; Activity [19]: 27.75%; viability at 25 µM [20]: 6.93%; Activity [21]: 28.34%; Activity [22]: 0.17%; Activity [23]: 0.04%; viability at 5 µM [24]: 43.9%; viability at 15 µM [25]: 16.3%; Activity [26]: 0.2%
48.1 | 54.6 | 18.2 | > 100 | > 100 | C[C@]12CC[C@@H]3c4ccc(OCCC[Se]C#N)cc4CC[C@H]3[C@@H]1CCC2=O | 43.9 | 
56.1 | 30.6 | 16.2 | 75.9 | 10.5 | COc1ccc2c(c1)CC[C@@H]1[C@@H]2CC[C@]2(C)C(NC(=O)C[Se]C#N)CC[C@@H]12 (some centres not stated) | 15 | 
16.6 | 2.6 | 9.4 | 22.8 | 1 | C[C@]12CC[C@@H]3c4cc(NC(=O)C[Se]C#N)c(O)cc4CC[C@H]3[C@@H]1CCC2=O | 15.4 | selectivity ratio [27]: 15; selectivity ratio at 72 h [28]: 3
18.8 | 53.4 | 26.3 | 24.2 | 62.5 | COc1ccc2c(c1)CC[C@@H]1[C@@H]2CC[C@]2(C)/C(=N/OC(=O)C[Se]C#N)CC[C@@H]12 | 25.2 | 
17.3 | 15.6 | 13.7 | 21.8 | 11 | C[C@]12CC[C@@H]3c4cc(NC(=O)CCCC[Se]C#N)c(O)cc4CC[C@H]3[C@@H]1CCC2=O | 18.2 | 
9.3 | 14.4 | 13.7 | 24.6 | 31 | C[C@]12CC[C@@H]3c4cc(NC(=O)CCCCCCCCC[Se]C#N)c(O)cc4CC[C@H]3[C@@H]1CCC2=O | 17.2 | 
39.2 | 49.5 | 26.8 | 37.4 | 68.9 | C[C@]12CC[C@@H]3c4cc(NC(=O)c5ccc(C[Se]C#N)cc5)c(O)cc4CC[C@H]3[C@@H]1CCC2=O | 27.2 | 
41.1 | 49.7 | 14 | 75.7 | > 100 | C[C@]12CC[C@@H]3c4ccc(OCCCC[Se]C#N)cc4CC[C@H]3[C@@H]1CCC2=O | 42.8 | 
